Results published in patent US20260027116A1, “Methods of Treating Chronic Graft-Versus-Host Disease Following Allogeneic Hematopoietic Stem Cell Transplantation” (Kadmon Corporation, LLC, priority 2022, published 2026).

System: patients with cGVHD
Conditions: Cohort 2 200 mg BID
Description: All responses were assessed by the investigators.
Reported Adverse Events. […] All-cause mortality data collected during the study were assessed for all enrolled participants. Disease progression related death was not reported as AE.
Number of Participants With Treatment-emergent Adverse Events (TEAEs), and Treatment-emergent Serious Adverse Events (TESAEs). […] TEAEs included both SAEs and non-SAEs. […] Analysis was performed on safety population which included all participants who received at least 1 dose of study medication.

## CC(C)NC(=O)COc1cccc(-c2nc(Nc3ccc4[nH]ncc4c3)c3ccccc3n2)c1 [Belumosudil, 2-{3-[4-(1H-indazol-5-ylamino)-2-quinazolinyl]phenoxy}-N-(propan-2-yl) acetamide]
  Macular degeneration: Affected/At Risk (%): 1/16 (6.25%)
  Migraine: # Events: 1
  Migraine: Affected/At Risk (%): 1/16 (6.25%)
  Muscle spasms: # Events: 0
  Muscle spasms: Affected/At Risk (%): 0/16 (0%)
  Muscle spasticity: # Events: 0
  Muscle spasticity: Affected/At Risk (%): 0/16 (0%)
  Muscular weakness: # Events: 1
  Muscular weakness: Affected/At Risk (%): 1/16 (6.25%)
  Musculoskeletal chest pain: # Events: 0
  Musculoskeletal chest pain: Affected/At Risk (%): 0/16 (0%)
  Myalgia: # Events: 1
  Myalgia: Affected/At Risk (%): 1/16 (6.25%)
  Nail disorder: # Events: 0
  Nail disorder: Affected/At Risk (%): 0/16 (0%)
  Nasal congestion: Affected/At Risk (%): 0/16 (0%)
  Nausea: # Events: 6
  Nausea: Affected/At Risk (%): 4/16 (25%)
  Neck pain: # Events: 0
  Neck pain: Affected/At Risk (%): 0/16 (0%)
  Nephrotic syndrome: # Events: 1
  Nephrotic syndrome: Affected/At Risk (%): 1/16 (6.25%)
  Neuropathy peripheral: # Events: 1
  Neuropathy peripheral: Affected/At Risk (%): 1/16 (6.25%)
  Neutrophil count decreased: # Events: 0
  Neutrophil count decreased: Affected/At Risk (%): 0/16 (0%)
  Nocturia: # Events: 0
  Nocturia: Affected/At Risk (%): 0/16 (0%)
  Non-cardiac chest pain: # Events: 3
  Non-cardiac chest pain: Affected/At Risk (%): 3/16 (18.75%)
  Obesity: # Events: 0
  Obesity: Affected/At Risk (%): 0/16 (0%)
  Oedema peripheral: # Events: 5
  Oedema peripheral: Affected/At Risk (%): 4/16 (25%)
  Oedema: # Events: 1
  Oedema: Affected/At Risk (%): 1/16 (6.25%)
  Oesophageal ulcer: # Events: 1
  Oesophageal ulcer: Affected/At Risk (%): 1/16 (6.25%)
  Oral candidiasis: # Events: 1
  Oral candidiasis: Affected/At Risk (%): 1/16 (6.25%)
  Oropharyngeal pain: # Events: 0
  Oropharyngeal pain: Affected/At Risk (%): 0/16 (0%)
  Orthopnoea: # Events: 0
  Orthopnoea: Affected/At Risk (%): 0/16 (0%)
  Osteonecrosis: # Events: 0
  Osteonecrosis: Affected/At Risk (%): 0/16 (0%)
  Osteopenia: # Events: 1
  Osteopenia: Affected/At Risk (%): 1/16 (6.25%)
  Osteoporosis: # Events: 1
  Osteoporosis: Affected/At Risk (%): 1/16 (6.25%)
  Overdose: # Events: 0
  Overdose: Affected/At Risk (%): 0/16 (0%)
  Pain in extremity: # Events: 3
  Pain in extremity: Affected/At Risk (%): 2/16 (12.5%)
  Pain: # Events: 0
  Pain: Affected/At Risk (%): 0/16 (0%)
  Palpitations: # Events: 0
  Palpitations: Affected/At Risk (%): 0/16 (0%)
  Paraesthesia: # Events: 1
  Paraesthesia: Affected/At Risk (%): 1/16 (6.25%)
  Pericardial effusion: # Events: 0
  Pericardial effusion: Affected/At Risk (%): 0/16 (0%)
  Peripheral coldness: # Events: 0
  Peripheral coldness: Affected/At Risk (%): 0/16 (0%)
  Peripheral sensory neuropathy: # Events: 1
  Peripheral sensory neuropathy: Affected/At Risk (%): 1/16 (6.25%)
  Phlebitis: # Events: 1
  Phlebitis: Affected/At Risk (%): 1/16 (6.25%)
  Photophobia: # Events: 1
  Photophobia: Affected/At Risk (%): 1/16 (6.25%)
  Platelet count decreased: # Events: 0
  Platelet count decreased: Affected/At Risk (%): 0/16 (0%)
  Pleural effusion: # Events: 0
  Pleural effusion: Affected/At Risk (%): 0/16 (0%)
  Pneumonia respiratory syncytial viral: # Events: 1
  Pneumonia respiratory syncytial viral: Affected/At Risk (%): 1/16 (6.25%)
  Pneumonia: # Events: 3
  Pneumonia: Affected/At Risk (%): 3/16 (18.75%)
  Pollakiuria: # Events: 0
  Pollakiuria: Affected/At Risk (%): 0/16 (0%)
  Presyncope: # Events: 3
  Presyncope: Affected/At Risk (%): 3/16 (18.75%)
  Productive cough: # Events: 7
  Productive cough: Affected/At Risk (%): 2/16 (12.5%)
  Proteinuria: # Events: 1
  Proteinuria: Affected/At Risk (%): 1/16 (6.25%)
  Pruritus: # Events: 4
  Pruritus: Affected/At Risk (%): 2/16 (12.5%)
  Pseudomonas infection: # Events: 2
  Pseudomonas infection: Affected/At Risk (%): 1/16 (6.25%)
  Pulmonary mass: # Events: 1
  Pulmonary mass: Affected/At Risk (%): 1/16 (6.25%)
  Pyrexia: # Events: 6
  Pyrexia: Affected/At Risk (%): 3/16 (18.75%)
  Rash erythematous: # Events: 1
  Rash erythematous: Affected/At Risk (%): 1/16 (6.25%)
  Rash maculo-papular: # Events: 0
  Rash maculo-papular: Affected/At Risk (%): 0/16 (0%)
  Rash pustular: # Events: 1
  Rash pustular: Affected/At Risk (%): 1/16 (6.25%)
  Rash: # Events: 1
  Rash: Affected/At Risk (%): 1/16 (6.25%)
  Red blood cells urine positive: # Events: 1
  Red blood cells urine positive: Affected/At Risk (%): 1/16 (6.25%)
  Renal failure: # Events: 1
  Renal failure: Affected/At Risk (%): 1/16 (6.25%)
  Respiratory syncytial virus infection: # Events: 1
  Respiratory syncytial virus infection: Affected/At Risk (%): 1/16 (6.25%)
  Respiratory tract infection fungal: # Events: 0
  Respiratory tract infection fungal: Affected/At Risk (%): 0/16 (0%)
  Respiratory tract infection: # Events: 0
  Respiratory tract infection: Affected/At Risk (%): 0/16 (0%)
  Restless legs syndrome: # Events: 1
  Restless legs syndrome: Affected/At Risk (%): 1/16 (6.25%)
  Rosacea: # Events: 1
  Rosacea: Affected/At Risk (%): 1/16 (6.25%)
  SAE, No. (%): 6 (38)
  Sinus pain: # Events: 0
  Sinus pain: Affected/At Risk (%): 0/16 (0%)
  Sinusitis: # Events: 4
  Sinusitis: Affected/At Risk (%): 2/16 (12.5%)
  Skin abrasion: # Events: 0
  Skin abrasion: Affected/At Risk (%): 0/16 (0%)
  Skin lesion: # Events: 1
  Skin lesion: Affected/At Risk (%): 1/16 (6.25%)
  Skin papilloma: # Events: 0
  Skin papilloma: Affected/At Risk (%): 0/16 (0%)
  Spinal compression fracture: # Events: 0
  Spinal compression fracture: Affected/At Risk (%): 0/16 (0%)
  Squamous cell carcinoma of skin: # Events: 2
  Squamous cell carcinoma of skin: Affected/At Risk (%): 2/16 (12.5%)
  Stomatitis: # Events: 1
  Stomatitis: Affected/At Risk (%): 1/16 (6.25%)
  Superior vena cava syndrome: # Events: 2
  Superior vena cava syndrome: Affected/At Risk (%): 1/16 (6.25%)
  TEAE, participants (%): 16 (100%) participants
  TESAE, participants (%): 6 (38%) participants
  Tachycardia: # Events: 0
  Tachycardia: Affected/At Risk (%): 0/16 (0%)
  Tendonitis: # Events: 1
  Tendonitis: Affected/At Risk (%): 1/16 (6.25%)
  Testicular pain: # Events: 0
  Testicular pain: Affected/At Risk (%): 0/16 (0%)
  Testicular swelling: # Events: 0
  Testicular swelling: Affected/At Risk (%): 0/16 (0%)
  Thoracic spinal stenosis: # Events: 0
  Thoracic spinal stenosis: Affected/At Risk (%): 0/16 (0%)
  Thrombocytopenia: # Events: 1
  Thrombocytopenia: Affected/At Risk (%): 1/16 (6.25%)
  Thrombocytosis: # Events: 0
  Thrombocytosis: Affected/At Risk (%): 0/16 (0%)
  Tinea pedis: # Events: 1
  Tinea pedis: Affected/At Risk (%): 1/16 (6.25%)
  Tooth fracture: # Events: 1
  Tooth fracture: Affected/At Risk (%): 1/16 (6.25%)
  Total other adverse events: Affected/At Risk (%): 16/16 (100%)
  Transfusion reaction: # Events: 0
  Transfusion reaction: Affected/At Risk (%): 0/16 (0%)
  Tremor: # Events: 2
  Tremor: Affected/At Risk (%): 1/16 (6.25%)
  Type 2 diabetes mellitus: # Events: 0
  Type 2 diabetes mellitus: Affected/At Risk (%): 0/16 (0%)
  Ulcerative keratitis: # Events: 1
  Ulcerative keratitis: Affected/At Risk (%): 1/16 (6.25%)
  Upper respiratory tract infection: # Events: 13
  Upper respiratory tract infection: Affected/At Risk (%): 9/16 (56.25%)
  Upper-airway cough syndrome: # Events: 2
  Upper-airway cough syndrome: Affected/At Risk (%): 2/16 (12.5%)
  Urinary retention: # Events: 2
